Reference: US20060194837A1, “Tetrahydroisoquinoline compounds” (priority 2004, published 2006)

Assays:
human H3 receptor = molecular target: T1, human H3 receptor (Homo sapiens, UniProt Q9Y5N1); experiment: H3 receptor binding (N-[3H]-α-methylhistamine displacement); details: membranes of SK-N-MC cells expressing cloned human H3 receptor, 0.8 nM N-[3H]-α-methylhistamine, 60 min at 25° C.
T1 construct: expressed in transfected cells

Rat SERT = molecular target: T2, Rat SERT (Rattus norvegicus, UniProt P31652); experiment: Rat brain SERT binding ([3H]-citalopram displacement); details: rat brain membranes without cerebellum, 0.6 nM [3H]-citalopram, 60 min at 25° C.; read-out: Rat SERT Ki
T2 construct: A rat brain without cerebellum (Zivic Laboratories, Inc.—Pittsburgh, Pa.) was homogenized; tissue Zivic Laboratories, Inc; host or cells: rat brain without cerebellum, membranes
Description: The supernatant was removed and re-centrifuged at 15,000 rpm for 30 min. […] Membranes were incubated with 0.6 nM [^3H]-Citalopram plus/minus test compounds for 60 min at 25° C. and harvested by rapid filtration over GF/C glass fiber filters (pretreated with 0.3% polyethylenimine) followed by four washes with ice-cold buffer.

T2 sequence (P31652 whole entry): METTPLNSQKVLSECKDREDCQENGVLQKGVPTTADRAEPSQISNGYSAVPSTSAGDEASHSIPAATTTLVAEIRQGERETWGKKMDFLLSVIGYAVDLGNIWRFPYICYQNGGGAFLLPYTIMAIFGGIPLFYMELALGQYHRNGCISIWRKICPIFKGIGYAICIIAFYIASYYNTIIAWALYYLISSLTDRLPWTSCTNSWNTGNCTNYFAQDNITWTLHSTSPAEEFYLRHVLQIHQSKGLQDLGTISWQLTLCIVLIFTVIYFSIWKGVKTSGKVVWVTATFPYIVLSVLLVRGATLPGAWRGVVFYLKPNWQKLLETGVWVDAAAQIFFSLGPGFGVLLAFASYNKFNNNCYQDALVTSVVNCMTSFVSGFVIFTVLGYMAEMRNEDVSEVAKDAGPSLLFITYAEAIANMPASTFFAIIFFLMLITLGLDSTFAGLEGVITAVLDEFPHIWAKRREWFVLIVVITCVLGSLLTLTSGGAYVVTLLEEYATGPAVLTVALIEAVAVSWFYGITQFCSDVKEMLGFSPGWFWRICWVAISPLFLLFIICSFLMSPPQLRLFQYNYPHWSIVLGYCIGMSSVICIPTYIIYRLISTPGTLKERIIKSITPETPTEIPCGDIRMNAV
T1 sequence (Q9Y5N1 whole entry): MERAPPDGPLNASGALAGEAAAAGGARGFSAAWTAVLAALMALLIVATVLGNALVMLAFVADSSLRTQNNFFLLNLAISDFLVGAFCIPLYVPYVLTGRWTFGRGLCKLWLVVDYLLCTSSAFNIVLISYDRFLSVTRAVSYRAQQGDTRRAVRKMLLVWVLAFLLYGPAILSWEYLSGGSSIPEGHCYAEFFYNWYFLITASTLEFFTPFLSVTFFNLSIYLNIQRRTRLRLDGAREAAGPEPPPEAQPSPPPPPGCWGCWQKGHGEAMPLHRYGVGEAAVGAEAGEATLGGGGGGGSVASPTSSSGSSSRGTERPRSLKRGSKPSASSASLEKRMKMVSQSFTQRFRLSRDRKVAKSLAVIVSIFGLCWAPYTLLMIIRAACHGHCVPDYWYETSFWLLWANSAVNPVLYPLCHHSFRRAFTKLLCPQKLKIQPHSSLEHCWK

Row | SMILES | Ki (human H3 receptor) | Ki (Rat SERT)
1 | COc1ccc(C2CN(C)Cc3cc(OC4CCN(C(C)C)CC4)ccc32)c(F)c1 (centres unmarked) [Example 119, 4-(2-Fluoro-4-methoxy-phenyl)-7-(1-isopropyl-piperidin-4-yloxy)-2-methyl-1,2,3,4-tetrahydro-isoquinoline] | 1 nM | 9 nM
2 | CN1Cc2cc(OCCCN3CCC(F)CC3)ccc2C(c2ccc(C#C[Si](C)(C)C)nc2)C1 (centres unmarked) [Example 189, 7-[3-(4-Fluoro-piperidin-1-yl)-propoxy]-2-methyl-4-(6-trimethylsilanylethynyl-pyridin-3-yl)-1,2,3,4-tetrahydro-isoquinoline] | 12 nM | 108 nM
3 | C[C@H]1COCCN1CCCOc1ccc2c(c1)CN(C)CC2c1ccc(SC(F)(F)F)cc1 (stereo partly drawn) [Example 219, 2-Methyl-7-[3-(3S-methyl-morpholin-4-yl)-propoxy]-4-(4-trifluoromethylsulfanyl-phenyl)-1,2,3,4-tetrahydro-isoquinoline] | 33 nM | 39 nM
4 | CSc1ccc(C2CN(C)Cc3cc(OC4CCN(CC#N)CC4)ccc32)cc1 (centres unmarked) [Example 245, {4-[2-Methyl-4-(4-methylsulfanyl-phenyl)-1,2,3,4-tetrahydro-isoquinolin-7-yloxy]-piperidin-1-yl}-acetonitrile] | 336 nM | 7 nM
5 | CCN1CCC(COc2ccc3c(c2)CN(C)CC3c2ccc(SC)cc2)CC1 (centres unmarked) [Example 105, 7-(1-Ethyl-piperidin-4-ylmethoxy)-2-methyl-4-(4-methylsulfanyl-phenyl)-1,2,3,4-tetrahydro-isoquinoline] | 5 nM | 6 nM
6 | COc1ccc(C2CN(C)Cc3cc(OCCCN4CCOC[C@@H]4C)ccc32)cc1F (stereo partly drawn) [Example 221, 4-(3-Fluoro-4-methoxy-phenyl)-2-methyl-7-[3-(3S-methyl-morpholin-4-yl)-propoxy]-1,2,3,4-tetrahydro-isoquinoline] | 9 nM | 11 nM
7 | CSc1ccc(C2CN(C)Cc3cc(OCC4CCNCC4)ccc32)cc1 (centres unmarked) [Example 80, 2-Methyl-4-(4-methylsulfanyl-phenyl)-7-(piperidin-4-ylmethoxy)-1,2,3,4-tetrahydro-isoquinoline] | 130 nM | 3 nM
8 | CCCNCCCOc1ccc2c(c1)CN(C)CC2c1ccc(OC)cc1 (centres unmarked) [Example 231, {3-[4-(4-Methoxy-phenyl)-2-methyl-1,2,3,4-tetrahydro-isoquinolin-7-yloxy]-propyl}-propyl-amine] | 61 nM | 2 nM
9 | CSc1ccc(C2CN(C)Cc3cc(OCCCN4CCCCC4)c(C)cc32)cc1 (centres unmarked) [Example 270, 2,6-Dimethyl-4-(4-methylsulfanyl-phenyl)-7-(3-piperidin-1-yl-propoxy)-1,2,3,4-tetrahydro-isoquinoline] | 6 nM | 18 nM
10 | COc1ccc(C2CN(C)Cc3cc(OCC4CCN(C(=O)C(F)(F)F)CC4)ccc32)cc1 (centres unmarked) [Example 122, 2,2,2-Trifluoro-1-{4-[4-(4-methoxy-phenyl)-2-methyl-1,2,3,4-tetrahydro-isoquinolin-7-yloxymethyl]-piperidin-1-yl}-ethanone] | 372 nM | 26 nM
11 | COc1ccc(C2CN(C)Cc3cc(OCC(F)CN4CCC(F)CC4)ccc32)cc1 (centres unmarked) [Example 43, 7-[2-Fluoro-3-(4-fluoro-piperidin-1-yl)-propoxy]-4-(4-methoxy-phenyl)-2-methyl-1,2,3,4-tetrahydro-isoquinoline] | 18 nM | 3 nM
12 | COc1ccc(C2CN(C)Cc3cc(OCCCN4CCOCC4)c(C)cc32)cc1F (centres unmarked) [Example 267, 4-(3-Fluoro-4-methoxy-phenyl)-2,6-dimethyl-7-(3-morpholin-4-yl-propoxy)-1,2,3,4-tetrahydro-isoquinoline] | 12 nM | 25 nM
13 | CSc1ccc(C2CN(C)Cc3cc(OC4CCN(CCC(F)(F)F)CC4)ccc32)cc1 (centres unmarked) [Example 244, 2-Methyl-4-(4-methylsulfanyl-phenyl)-7-[1-(3,3,3-trifluoro-propyl)-piperidin-4-yloxy]-1,2,3,4-tetrahydro-isoquinoline] | 129 nM | 7 nM
14 | COc1ccc(C2CN(C)Cc3cc(OC[C@@H]4CN(C5CC5)CCO4)ccc32)cc1 (mixture of isomers) [Example 260, 7-(4-Cyclopropyl-morpholin-2S-ylmethoxy)-4-(4-methoxy-phenyl)-2-methyl-1,2,3,4-tetrahydro-isoquinoline] | 3 nM | 29 nM

Second part, the compound after the results:

Row | Ki (human H3 receptor) | Ki (Rat SERT) | SMILES
15 | 39 nM | 5000 nM | COc1ccc(C2CN(Cc3ccccc3)Cc3cc(OCCCN4CCC(F)CC4)ccc32)cc1 (centres unmarked) [Example 127, 2-Benzyl-7-[3-(4-fluoro-piperidin-1-yl)-propoxy]-4-(4-methoxy-phenyl)-1,2,3,4-tetrahydro-isoquinoline]
16 | 1 nM | 7 nM | CN1Cc2cc(OCCCN3CCC(F)CC3)ccc2C(c2ccc(-n3cccn3)nc2)C1 (centres unmarked) [Example 194, 7-[3-(4-Fluoro-piperidin-1-yl)-propoxy]-2-methyl-4-(6-pyrazol-1-yl-pyridin-3-yl)-1,2,3,4-tetrahydro-isoquinoline]
17 | 4 nM | 3 nM | COc1ccc(C2CN(C)Cc3cc(OCCCN(C)C(C)C)ccc32)cc1 (centres unmarked) [Example 233, Isopropyl-{3-[4-(4-methoxy-phenyl)-2-methyl-1,2,3,4-tetrahydro-isoquinolin-7-yloxy]-propyl}-methyl-amine]
18 | 2 nM | 11 nM | COc1cccc(C2CN(C)Cc3cc(OC4CCN(C(C)C)CC4)ccc32)c1 (centres unmarked) [Example 98, 7-(1-Isopropyl-piperidin-4-yloxy)-4-(3-methoxy-phenyl)-2-methyl-1,2,3,4-tetrahydro-isoquinoline]
19 | 0.5 nM | 104 nM | CCCN1Cc2cc(OCCCN3CCCCC3)ccc2C(c2ccc(OC)cc2)C1 (centres unmarked) [Example 67, 4-(4-Methoxy-phenyl)-7-(3-piperidin-1-yl-propoxy)-2-propyl-1,2,3,4-tetrahydro-isoquinoline]
20 | 134 nM | 4 nM | COc1ccc(C2CN(C)Cc3cc(OCCCN4CCN(Cc5cccs5)CC4)ccc32)cc1 (centres unmarked) [Example 201, 4-(4-Methoxy-phenyl)-2-methyl-7-[3-(4-thiophen-2-ylmethyl-piperazin-1-yl)-propoxy]-1,2,3,4-tetrahydro-isoquinoline]
21 | 104 nM | 3 nM | COc1ccc(C2CN(C)Cc3cc(OCCCN4CCS(=O)(=O)CC4)ccc32)cc1 (centres unmarked) [Example 27, 7-[3-(1,1-Dioxo-1λ^6-thiomorpholin-4-yl)-propoxy]-4-(4-methoxy-phenyl)-2-methyl-1,2,3,4-tetrahydro-isoquinoline]
22 | 2 nM | 4 nM | CCN1CCC(COc2ccc3c(c2)CN(C)CC3c2ccc(OC)cc2)CC1 (centres unmarked) [Example 87, 7-(1-Ethyl-piperidin-4-ylmethoxy)-4-(4-methoxy-phenyl)-2-methyl-1,2,3,4-tetrahydro-isoquinoline]
23 | 233 nM | 2 nM | COc1ccc(C2CN(C)Cc3cc(OC[C@@H]4CNCCO4)ccc32)cc1 (stereo partly drawn) [Example 252, 4-(4-Methoxy-phenyl)-2-methyl-7-(morpholin-2S-ylmethoxy)-1,2,3,4-tetrahydro-isoquinoline]
24 | 38 nM | 29 nM | COc1ccc(C2CN(C)Cc3cc(OCCCN4CCC(C(F)(F)F)CC4)ccc32)cc1 (centres unmarked) [Example 38, 4-(4-Methoxy-phenyl)-2-methyl-7-[3-(4-trifluoromethyl-piperidin-1-yl)-propoxy]-1,2,3,4-tetrahydro-isoquinoline]
25 | 499 nM | 11 nM | COc1ccc(C2CN(C)Cc3cc(OCCCN=C4N(C)CCCN4C)ccc32)cc1 (centres unmarked) [Example 15, (1,3-Dimethyl-tetrahydro-pyrimidin-2-ylidene)-{3-[4-(4-methoxy-phenyl)-2-methyl-1,2,3,4-tetrahydro-isoquinolin-7-yloxy]-propyl}-amine]
26 | 11 nM | 5 nM | COc1ccc(C2CN(C)Cc3cc(OCC4CCN(C5CCCC5)CC4)ccc32)cc1 (centres unmarked) [Example 86, 7-(1-Cyclopentyl-piperidin-4-ylmethoxy)-4-(4-methoxy-phenyl)-2-methyl-1,2,3,4-tetrahydro-isoquinoline]
27 | 15 nM | 18 nM | CSc1ccc(C2CN(C)Cc3cc(OCCCN4CCOCC4)c(C)cc32)cc1 (centres unmarked) [Example 173, 2,6-Dimethyl-4-(4-methylsulfanyl-phenyl)-7-(3-morpholin-4-yl-propoxy)-1,2,3,4-tetrahydro-isoquinoline]
28 | 14 nM | 31 nM | COc1ccc(C2CN(C)Cc3cc(OCCCN4CCOCC4)c(C)cc32)cc1 (centres unmarked) [Example 266, 4-(4-Methoxy-phenyl)-2,6-dimethyl-7-(3-morpholin-4-yl-propoxy)-1,2,3,4-tetrahydro-isoquinoline]
29 | 10 nM | 8 nM | COc1ccc(C2CN(C)Cc3cc(OCC4CCN(CC(C)C)CC4)ccc32)c(F)c1 (centres unmarked) [Example 115, 4-(2-Fluoro-4-methoxy-phenyl)-7-(1-isobutyl-piperidin-4-ylmethoxy)-2-methyl-1,2,3,4-tetrahydro-isoquinoline]
30 | 12 nM | 40 nM | CN1Cc2cc(OCCCN3CCC(F)CC3)ccc2C(c2cccc(OC(F)(F)F)c2)C1 (centres unmarked) [Example 128, 7-[3-(4-Fluoro-piperidin-1-yl)-propoxy]-2-methyl-4-(3-trifluoromethoxy-phenyl)-1,2,3,4-tetrahydro-isoquinoline]
31 | 34 nM | 4 nM | COc1ccc(C2CN(C)Cc3cc(OCC4CCN(CC(C)(C)O)CC4)ccc32)cc1 (centres unmarked) [Example 250, 1-{4-[4-(4-Methoxy-phenyl)-2-methyl-1,2,3,4-tetrahydro-isoquinolin-7-yloxymethyl]-piperidin-1-yl}-2-methyl-propan-2-ol]
